# Measured values taken from patent US20230276836A1, “ORAL RETENTION COMPOSITION” (BIZEN CHEMICAL CO., LTD., priority 2020, published 2023).
# Experiment: Reactivity index (RI) between compound and carrageenan, viscosity change (Test Examples 2, 10)
# Format: physicochemical
# Details: Test Example 2; uncoated compound, 10 ppm in 1 mass% carrageenan, vs methanol sample; 1.1<RI = viscosity decreased
# Procedure: The measurement device, measurement, control sample, and D0 were the same as those in Test Example 1. An aqueous methanol solution containing a polyphenolic compound was prepared by dissolving the polyphenolic compound in an aqueous methanol solution (methanol concentration: 50 mass%) and diluted to 1 mg/mL in a measuring cylinder. 200 µL of this solution was added to 20 g of the same solution as the control sample (aqueous solution of 1 mass% carrageenan) and homogeneously mixed. The obtained solution was determined to be an uncoated sample. Additionally, a solution was prepared in the same manner as the uncoated sample, except that a 50% (v/v) aqueous methanol solution was used instead of the aqueous methanol solution containing a polyphenolic compound and determined to be a methanol sample. Evaluation Method: The progress distance (mm) of the control sample is D0. The progress distance (mm) of the uncoated sample is D1. The progress distance (mm) of the methanol sample is D1M. The reactivity index (RI) between a polyphenolic compound and carrageenan was calculated according to the following formula.
# In this test system, the addition of an aqueous solution causes some decrease in viscosity due to a dilution effect. Thus, the determination method described above was used to detect the changes in viscosity due to the effect of a polyphenolic compound. Note that ±10% of the RI value was assumed to be within the margin of error (i.e., an RI value of 0.9 to 1.1 was assumed to be within the margin of error).
# In the same manner as in Test Example 2, epigallocatechin gallate (polyphenolic compound), syringin and eleutheroside E (lignan compounds), and spermidine (basic substance) were prepared, and the effects of these substances on the viscosity of carrageenan were measured, and their reactivity was evaluated. Note that spermidine was dissolved in purified water, and the prepared aqueous solution was used as a sample.
row,RI,Structure (SMILES)
1,4.1,"O=C(/C=C/c1ccc(O)c(O)c1)O[C@@H]1C[C@](O)(C(=O)O)C[C@@H](O)[C@H]1O [Comparative Example 3, Chlorogenic Acid]"
2,2.5,"O=C(OC[C@H]1O[C@@H](OC(=O)c2cc(O)c(O)c(OC(=O)c3cc(O)c(O)c(O)c3)c2)[C@H](OC(=O)c2cc(O)c(O)c(OC(=O)c3cc(O)c(O)c(O)c3)c2)[C@@H](OC(=O)c2cc(O)c(O)c(OC(=O)c3cc(O)c(O)c(O)c3)c2)[C@@H]1OC(=O)c1cc(O)c(O)c(OC(=O)c2cc(O)c(O)c(O)c2)c1)c1cc(O)c(O)c(OC(=O)c2cc(O)c(O)c(O)c2)c1 [Comparative Example 4, Tannic Acid]"
3,2.2,"O=c1c(O)c(-c2ccc(O)c(O)c2)oc2cc(O)cc(O)c12 [Comparative Example 5, Quercetin]"
4,3.5,"Oc1ccc(C=Cc2cc(O)cc(O)c2)cc1 [Comparative Example 6, Resveratrol]"

# Same assay, conditions: Test Example 10; uncoated compound, 10 ppm in 1 mass% carrageenan; spermidine dissolved in purified water
row,Structure (SMILES),RI
1,"O=C(O[C@@H]1Cc2c(O)cc(O)cc2O[C@@H]1c1cc(O)c(O)c(O)c1)c1cc(O)c(O)c(O)c1 [Comparative Example 12, Epigallocatechin Gallate]",4.4
2,"COc1cc(/C=C/CO)cc(OC)c1O[C@@H]1O[C@H](CO)[C@@H](O)[C@H](O)[C@H]1O [Comparative Example 13, Syringin]",2.3
3,"COc1cc([C@H]2OC[C@@H]3[C@@H]2CO[C@H]3c2cc(OC)c(O[C@@H]3O[C@H](CO)[C@@H](O)[C@H](O)[C@H]3O)c(OC)c2)cc(OC)c1O[C@@H]1O[C@H](CO)[C@@H](O)[C@H](O)[C@H]1O [Comparative Example 14, Eleutheroside E]",2.1
4,"NCCCCNCCCN [Comparative Example 15, Spermidine]",1.5
